From patent US20250243176A1, “(S)-1-(1-ACRYLOYLPIPERIDIN-3-YL)-2-FLUORO-5,6,7,8,9,10-HEXAHYDROCYCLO HEPTA[B]INDOLE-4-CARBOXAMIDE, AND RELATED CRYSTALLINE FORMS, COMPOSITIONS, AND METHODS THEREOF” (GB005, Inc., priority 2021, published 2025)
In brackets after ≈: the same amount, converted by molar mass.

Columns and labels:
BTK = BTK inactivation kinetics in peripheral and CNS tissue
Source text: (S)-1-(1-acryloylpiperidin-3-yl)-2-fluoro-5,6,7,8,9,10-hexahydrocyclohepta[b]indole-4-carboxamide, hereinafter referred to as “Compound 1”, is an orally available, selective, potent inhibitor of Bruton's tyrosine kinase (BTK), thereby providing potential treatment options in BTK-driven diseases. The potency of Compound 1 for BTK inhibition is in the nM range in both cell-free enzymatic and whole blood functional assays.

[1] = Solubility testing in vehicle, HPLC (Form III); format: physicochemical; details: for solubility at 24 h / solubility at 72 h / solubility at 4 h: thermodynamic from solid
Description: In each of the following studies (Examples 6-10), the starting material was Compound 1 (free form, not salt) Form III. The material was a light yellow solid, comprising non-hygroscopic irregular shaped crystal with aggregation. The same analytical methods as described in Example 1 were employed.
Vehicle solutions were prepared as follows:
Solubility was determined at room temperature for 24 and 72 hours and at 45° C. for 4 and 24 hours. About 30/100 mg Compound 1 was added to vehicle (2 mL) and the mixture stirred at room temperature for 24 or 72 hours. The suspensions were filtered or centrifuged, and the filtrate analyzed by HPLC.

Compound: C=CC(=O)N1CCC[C@@H](c2c(F)cc(C(N)=O)c3[nH]c4c(c23)CCCCC4)C1 [Compound 1, (S)-1-(1-acryloylpiperidin-3-yl)-2-fluoro-5,6,7,8,9,10-hexahydrocyclohepta[b]indole-4-carboxamide]
- BTK inactivation kinetics (BTK): rapid
- Solubility ([1]; Capryol 90, RT, 72 h, pH 6.5, loading 50 mg/mL): >50000 µg/mL
- Solubility ([1]; Cremophor HS 15, 45° C., 24 h, pH 7.5, loading 50 mg/mL): >50000 µg/mL
- Solubility ([1]; Gelucire 44/14, 45° C., 24 h, pH 5.8, loading 50 mg/mL): >50000 µg/mL
- Solubility ([1]; Gelucire 48/16, 45° C., 24 h, loading 50 mg/mL): >50000 µg/mL
- Solubility ([1]; Labrasol, RT, 72 h, pH 6.4, loading 50 mg/mL): >50000 µg/mL
- Solubility ([1]; PEG400/TPGS(3/1), 45° C., 24 h, pH 6.1, loading 50 mg/mL): >50000 µg/mL
- Solubility ([1]; PEG400, RT, 72 h, pH 6.7, loading 50 mg/mL): >50000 µg/mL
- Solubility ([1]; PG, RT, 72 h, pH 5.2, loading 50 mg/mL): >50000 µg/mL
- solubility at 24 h ([1]; aqueous with cosolvent or surfactant or cyclodextrin, 1% SLS, RT, 24 h, pH 7.1, loading 15 mg/mL): 1200 µg/mL (≈ 3.13 mM)
- solubility at 72 h ([1]; aqueous with cosolvent or surfactant or cyclodextrin, 1% SLS, RT, 72 h, pH 7.2, loading 15 mg/mL): 1150 µg/mL (≈ 3 mM)
- solubility at 24 h ([1]; aqueous with cosolvent or surfactant or cyclodextrin, 1% Tween 80, RT, 24 h, pH 6.3, loading 15 mg/mL): 160 µg/mL (≈ 0.417 mM)
- solubility at 72 h ([1]; aqueous with cosolvent or surfactant or cyclodextrin, 1% Tween 80, RT, 72 h, pH 6.3, loading 15 mg/mL): 170 µg/mL (≈ 0.443 mM)
- solubility at 24 h ([1]; aqueous with cosolvent or surfactant or cyclodextrin, 1% polox188, RT, 24 h, pH 5.7, loading 15 mg/mL): 0.2 µg/mL (≈ 0.000522 mM)
- solubility at 72 h ([1]; aqueous with cosolvent or surfactant or cyclodextrin, 1% polox188, RT, 72 h, pH 5.7, loading 15 mg/mL): 0.4 µg/mL (≈ 0.00104 mM)
- solubility at 24 h ([1]; aqueous with cosolvent or surfactant or cyclodextrin, 1% polox407, RT, 24 h, pH 6.7, loading 15 mg/mL): 4 µg/mL (≈ 0.0104 mM)
- solubility at 72 h ([1]; aqueous with cosolvent or surfactant or cyclodextrin, 1% polox407, RT, 72 h, pH 6.9, loading 15 mg/mL): 1 µg/mL (≈ 0.00261 mM)
- solubility at 24 h ([1]; aqueous with cosolvent or surfactant or cyclodextrin, 5% PVP K30, RT, 24 h, pH 4.0, loading 15 mg/mL): 8 µg/mL (≈ 0.0209 mM)
- solubility at 72 h ([1]; aqueous with cosolvent or surfactant or cyclodextrin, 5% PVP K30, RT, 72 h, pH 4.0, loading 15 mg/mL): 60 µg/mL (≈ 0.156 mM)
- solubility at 24 h ([1]; aqueous with cosolvent or surfactant or cyclodextrin, 5% PVP VA64, RT, 24 h, pH 4.6, loading 15 mg/mL): 36 µg/mL (≈ 0.0939 mM)
- solubility at 72 h ([1]; aqueous with cosolvent or surfactant or cyclodextrin, 5% PVP VA64, RT, 72 h, pH 4.6, loading 15 mg/mL): 42 µg/mL (≈ 0.11 mM)
- solubility at 24 h ([1]; aqueous with cosolvent or surfactant or cyclodextrin, 10% HP-B-CD, RT, 24 h, pH 6.7, loading 15 mg/mL): 230 µg/mL (≈ 0.6 mM)
- solubility at 72 h ([1]; aqueous with cosolvent or surfactant or cyclodextrin, 10% HP-B-CD, RT, 72 h, pH 6.7, loading 15 mg/mL): 220 µg/mL (≈ 0.574 mM)
- solubility at 24 h ([1]; aqueous with cosolvent or surfactant or cyclodextrin, 10% SBE-B-CD, RT, 24 h, pH 6.5, loading 15 mg/mL): 1600 µg/mL (≈ 4.17 mM)
- solubility at 72 h ([1]; aqueous with cosolvent or surfactant or cyclodextrin, 10% SBE-B-CD, RT, 72 h, pH 6.5, loading 15 mg/mL): 1610 µg/mL (≈ 4.2 mM)
- solubility at 24 h ([1]; aqueous with cosolvent or surfactant or cyclodextrin, 10% TPGS, RT, 24 h, pH 5.3, loading 15 mg/mL): 2030 µg/mL (≈ 5.29 mM)
- solubility at 72 h ([1]; aqueous with cosolvent or surfactant or cyclodextrin, 10% TPGS, RT, 72 h, pH 5.3, loading 15 mg/mL): 2040 µg/mL (≈ 5.32 mM)
- solubility at 4 h ([1]; aqueous with cosolvent or surfactant or cyclodextrin, Cremophor RH40, 45° C., loading 50 mg/mL): 18600 µg/mL (≈ 48.5 mM)
- solubility at 4 h ([1]; aqueous with cosolvent or surfactant or cyclodextrin, Gelucire 44/14, 45° C., pH 5.7, loading 50 mg/mL): 48100 µg/mL (≈ 125 mM)
- solubility at 24 h ([1]; aqueous with cosolvent or surfactant or cyclodextrin, Gelucire 44/14, 45° C., 24 h, pH 5.8, loading 50 mg/mL): > 50000 µg/mL
- solubility at 4 h ([1]; aqueous with cosolvent or surfactant or cyclodextrin, Gelucire 48/16, 45° C., loading 50 mg/mL): 44300 µg/mL (≈ 116 mM)
- solubility at 24 h ([1]; aqueous with cosolvent or surfactant or cyclodextrin, Gelucire 48/16, 45° C., 24 h, loading 50 mg/mL): > 50000 µg/mL
- solubility at 24 h ([1]; aqueous with cosolvent or surfactant or cyclodextrin, Labrasol, RT, 24 h, pH 6.9, loading 50 mg/mL): > 50000 µg/mL
- solubility at 72 h ([1]; aqueous with cosolvent or surfactant or cyclodextrin, Labrasol, RT, 72 h, pH 6.4, loading 50 mg/mL): > 50000 µg/mL
- solubility at 24 h ([1]; oil or lipid, Capryol 90, RT, 24 h, pH 6.8, loading 50 mg/mL): 47900 µg/mL (≈ 125 mM)
- solubility at 72 h ([1]; oil or lipid, Capryol 90, RT, 72 h, pH 6.5, loading 50 mg/mL): > 50000 µg/mL
- solubility at 24 h ([1]; oil or lipid, Miglyol 810, RT, 24 h, pH 5.8, loading 15 mg/mL): 2160 µg/mL (≈ 5.63 mM)
- solubility at 72 h ([1]; oil or lipid, Miglyol 810, RT, 72 h, pH 5.8, loading 15 mg/mL): 2670 µg/mL (≈ 6.96 mM)
- solubility at 4 h ([1]; oil or lipid, Oleic acid, 45° C., pH 3.0, loading 15 mg/mL): 8500 µg/mL (≈ 22.2 mM)
- solubility at 24 h ([1]; oil or lipid, Oleic acid, 45° C., 24 h, pH 3.3, loading 15 mg/mL): 14000 µg/mL (≈ 36.5 mM)
